Format in all cases: cell-based, human
For assay [1], the system named is HOS cells. Nature of the assay: Proliferation of HOS cells on plastic, glass or CrCo surfaces coated with rhOPN. The procedure:
Cell proliferation was determined by the rate of ^3H-Thymidine incorporation into DNA. Cells labeled with ^3H-Thymidine were seeded for 6 hours, then lysed with TCA. The TCA insoluble material was collected and resuspended in 0.5 N NaOH. ^3H-thymidine incorporation into TCA insoluble material was used as an index for cell proliferation. Rate of proliferation is expressed as cpm/1000 cells/6 h. All measurements were done in triplicates.
Since rhOPN promoted cell attachment to different surfaces, it was of interest to examine whether the protein had any effect on the proliferation of HOS grown on these surfaces.

The subject of assay [2] is HOS cells. Nature of the assay: Attachment of HOS cells to plastic, glass or chromocobalt surfaces coated with OPN. The note with it: 1 hour. The procedure:
500 cells were plated on coated plastic, glass or chromocobalt surfaces and incubated at 37° C. in a humidified atmosphere (95% air 5% CO2). Surfaces were coated with either human recombinant phosphorylated OPN (rhOPN) or unphosphorylated OPN. Fibronectin coated surfaces were used as a control. After 1 hour, unattached cells were removed and the surfaces were washed with PBS. The total number of attached cells was determined for the total cpm released for the surfaces after the cells were lysed with 10% TCA and solubilized in 5 ml scintillation fluid. All measurements were done in triplicates.

Assay [3] relates to HOS cells. Nature of the assay: Proliferation of HOS cells on Ti disks coated with rhOPN (3H-thymidine incorporation). The procedure:
Cell proliferation was determined by the rate of ^3H-Thymidine incorporation into DNA. Cells were labeled with 10 μCi/ml of ^3H-Thymidine in DME media. After 6 hours, the cells were lysed in cold 10% trichloroacetic acid (TCA). The TCA insoluble material was collected and washed several times with 10% TCA, then resuspended in 0.5 N NaOH. ^3H-thymidine incorporation into TCA insoluble material was used as an index of cell proliferation. The material collected was mixed with scintillation liquid (Begman). The amount of radiation generated was compared between cells grown in titanium disks uncoated, and titanium disks coated with OPN.
Cell proliferation was determined by the rate of ^3H-Thymidine incorporation into DNA. Cells labeled with ^3H-Thymidine were seeded for 6 hours, then lysed with TCA. The TCA insoluble material was collected and resuspended in 0.5 N NaOH. ^3H-thymidine incorporation into TCA insoluble material was used as an index for cell proliferation. Rate of proliferation is expressed as cpm/1000 cells/6 h. Control group: 254,54, rhOPN group: 560,83. All measurements were done in triplicates and reported as mean±Standard error for the mean.
Since rhOPN promoted cell attachment to Ti disks, it was of interest to examine whether the protein had any effect on the proliferation of HOS grown on Ti disks.
For orientation: Uptake of a labelled nucleoside into DNA is a usual measure of proliferation.

The results in this text go back to patent US20060105013A1, “Osteopontin-coated surfaces and methods of use” (priority 2000, published 2006).

With “rhOPN: human recombinant phosphorylated form of osteopontin”, the “Proliferation Rate” value in assay [1] (CrCo) is recorded as 1740 Cpm/6 h/1000 cells; in assay [1] (Glass), 2740 Cpm/6 h/1000 cells; in assay [1] (Plastic), 3300 Cpm/6 h/1000 cells. In assay [1] (glass, plastic and chromocobalt surfaces), the “proliferation rate relative to cells grown on uncoated surfaces” value is on record as “at least twice”. For the same substance, the “% total attached” value worked out at 90.8% in assay [2] (Plastic surface), 69.2% in assay [2] (chromocobalt (CrCo) surface) and 98.1% in assay [2] (glass surface). Also, in assay [3], the Rate of proliferation is listed as 560,83 cpm/1000 cells/6 h. For the same substance, in assay [3], the “proliferation rate relative to cells grown on uncoated Ti disks” value is listed as “approximately twice”.
